Assay results reported in the supplement of paper PMC7840683.
± gives the standard deviation of the averaged measurements.

System: HepaRG
Assay: LDH release cytotoxicity, % of total lysis control; higher = more cytotoxic
Conditions: 48 h
Summary of the method: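 Single-lot HepaRG cells in collagen I-coated 96-well plates were treated for 48 h in serum-free induction medium containing 0.5% DMSO with test chemicals in eight-point half-log series up to 100 µM. For total lysis, wells received 0.1% Triton X. LDH in 50 µL spent medium was assayed by resorufin fluorescence with CytoTox-ONE. Percent cytotoxicity was normalized to the on-plate vehicle and total lysis controls, with duplicates averaged.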

SMILES | LDH release cytotoxicity (0.03162 µM) [%] | LDH release cytotoxicity (0.1 µM) [%] | LDH release cytotoxicity (0.3162278 µM) [%] | LDH release cytotoxicity (1 µM) [%] | LDH release cytotoxicity (3.16228 µM) [%] | LDH release cytotoxicity (10 µM) [%] | LDH release cytotoxicity (31.6228 µM) [%] | LDH release cytotoxicity (100 µM) [%] | LDH release cytotoxicity (0.0327296 µM) [%] | LDH release cytotoxicity (0.1035 µM) [%] | LDH release cytotoxicity (0.327296 µM) [%] | LDH release cytotoxicity (1.035 µM) [%] | LDH release cytotoxicity (3.27296 µM) [%] | LDH release cytotoxicity (10.35 µM) [%] | LDH release cytotoxicity (32.729574 µM) [%] | LDH release cytotoxicity (103.5 µM) [%]
O=Cc1ccccc1C=O [1,2-Benzenedicarboxaldehyde] | -1.01 ± 0.34 | -0.945 ± 0.21 | -1.43 ± 0.23 | -0.52 ± 1.3 | -0.768 ± 0.29 | -0.0584 ± 0.28 | 1.36 ± 0.23 | 7.96 ± 1.3 |  |  |  |  |  |  |  | 
O=C(O)c1cccnc1 [Nicotinic acid] |  |  |  |  |  |  |  |  | -1.39 ± 0.94 | -1.35 ± 0.33 | -1.95 ± 0.85 | -1.67 ± 0.46 | -1.83 ± 0.44 | -0.596 ± 0.74 | -0.819 ± 0.39 | 0.214 ± 0.71
O=C(O)COc1nc(Cl)c(Cl)cc1Cl [Triclopyr] | -0.728 ± 0.43 | -2.08 ± 0.22 | -1.59 ± 0.14 | -1.77 ± 0.51 | -1.2 ± 0.3 | 0.578 ± 0.15 | 34.7 ± 3.1 | 45.6 ± 2.5 |  |  |  |  |  |  |  | 
O=c1[nH]c2ccc(S(=O)CCN3CCC(Cc4ccc(F)cc4)CC3)cc2o1 (configuration not stated) [Besonprodil] | -2.69 ± 1.3 | -1.42 ± 0.9 | -1.87 ± 0.18 | -0.983 ± 0.15 | -0.767 ± 0.42 | -1.16 ± 0.83 | -1.7 ± 0.064 | 2.32 ± 2.9 |  |  |  |  |  |  |  | 
CN1CCN(Cc2cc(-c3ccc4nc(O)oc4c3)co2)C(c2ccc(F)cc2)C1 (configuration not stated) [AVE8488] | -0.724 ± 0.27 | -1.47 ± 0.17 | -0.841 ± 0.31 | -0.702 ± 0.13 | -1.52 ± 0.25 | -0.46 ± 0.076 | 0.998 ± 0.15 | 9.54 ± 0.2 |  |  |  |  |  |  |  | 
COC=C(C(=O)OC)c1ccccc1COc1cccc(C(F)(F)F)n1 [Picoxystrobin] | -4.13 ± 1 | -3.11 ± 1.4 | -4.04 ± 0.58 | -4.28 ± 1.9 | -5.14 ± 0.47 | 20 ± 2.6 | 37 ± 6.9 | 60 ± 9.4 |  |  |  |  |  |  |  | 
Cc1cccc([N+](=O)[O-])c1C [1,2-Dimethyl-3-nitrobenzene] | 0.0499 ± 0.58 | -0.56 ± 0.35 | -0.0544 ± 1 | 0.0899 ± 0.093 | -0.155 ± 0.3 | 2.03 ± 0.56 | 1.1 ± 0.079 | 1.87 ± 0.3 |  |  |  |  |  |  |  | 
COc1ccc(C)cc1N [2-Methoxy-5-methylaniline] | -1.46 ± 2 | -3.72 ± 0.18 | -3.46 ± 0.056 | -4.05 ± 0.41 | -3.672 ± 0.029 | -4.54 ± 1.1 | -2.55 ± 0.51 | 14.6 ± 1.5 |  |  |  |  |  |  |  | 
CC(Oc1cccc(Cl)c1)C(=O)O (configuration not stated) [Cloprop] | -1.06 ± 1.4 | -0.561 ± 0.06 | -0.691 ± 0.98 | -0.434 ± 0.14 | -0.762 ± 0.08 | -0.167 ± 0.17 | -0.608 ± 0.19 | 0.547 ± 0.3 |  |  |  |  |  |  |  | 
